# Measurements: patent US9387209B2, “Histone deacetylases (HDACs) inhibitors” (ANNJI PHARMACEUTICAL CO., LTD., priority 2012, dated 2016)
# How the values were obtained:
# [1] = biological target: human histone deacetylases (HDAC) 1 (Homo sapiens, UniProt Q13547); assay: HDAC enzymatic assay, HDAC1; type: biochemical; conditions: read-out: IC50 HDAC1 (grading)
# [2] = test system: SH-SY5Y cells; assay: Neurite synaptic uptake activity (FM1-43), SH-SY5Y; type: cell-based; conditions: Homo sapiens, NGF positive control taken as 100%, read-out: uptake of dye FM1-43 EC50
# Method: (§1) Neurite Synaptic Uptake Activity Analysis.
# (§2) The effects of compounds on the neuronal synapse uptake of fluorescent indicator FM1-43 were assayed. The uptake of the dye indicated the synaptic function of the neurites. PC 12 and SH-SY5Y cells were used. Cells in experimental groups were treated with a test compound and FM1-43; Cells in positive control were treated with NGF and FM1-43; Cells in negative control were treated with a vehicle and FM1-43. The fluorescence in the positive control were taken as 100%.
# [3] = biological target: T1, zinc-mediated β-amyloid aggregation (Homo sapiens, UniProt P05067); assay: Anti-amyloid aggregation assay, CR (Congo red); type: biochemical; conditions: detected by CR
# T1 sequence (P05067 672-711 limits assumed): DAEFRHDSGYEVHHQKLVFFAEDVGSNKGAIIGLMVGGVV
# Method: (§3) Anti-Amyloid Aggregation Assay.
# (§4) The effects of compounds on inhibition of β-amyloid aggregation were assayed. The levels of β-amyloid aggregates were determined by thioflavin S, BCA or CR assays (Tables 1). Thioflavin S, and Congo red are for in vitro staining of aggregated β-amyloid. Bicinchoninic acid (BCA) assay determines the total protein level or concentration.
# [4] = biological target: T2, human histone deacetylases (HDAC) 8 (Homo sapiens, UniProt Q9BY41); assay: HDAC enzymatic assay, HDAC8; type: biochemical; conditions: HDAC8; read-out: IC50 HDAC8 (grading)
# T2 sequence (Q9BY41 1-377): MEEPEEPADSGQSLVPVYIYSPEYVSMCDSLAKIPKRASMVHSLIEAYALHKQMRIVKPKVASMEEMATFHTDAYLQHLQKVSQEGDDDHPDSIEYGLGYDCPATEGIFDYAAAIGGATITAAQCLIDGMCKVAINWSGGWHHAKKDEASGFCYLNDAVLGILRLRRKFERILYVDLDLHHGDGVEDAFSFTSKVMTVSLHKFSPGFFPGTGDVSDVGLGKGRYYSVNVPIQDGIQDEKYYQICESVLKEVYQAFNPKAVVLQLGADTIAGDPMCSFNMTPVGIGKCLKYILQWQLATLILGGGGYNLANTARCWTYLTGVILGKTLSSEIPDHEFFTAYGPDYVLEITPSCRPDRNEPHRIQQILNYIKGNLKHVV
# [5] = biological target: T1, zinc-mediated β-amyloid aggregation; assay: Anti-amyloid aggregation assay, BCA; type: biochemical; conditions: detected by BCA
# Method: as §3, §4
# [6] = biological target: T3, human histone deacetylases (HDAC) 6 (Homo sapiens, UniProt Q9UBN7); assay: HDAC enzymatic assay, HDAC6; type: biochemical; conditions: for IC50: HDAC6, read-out: IC50 HDAC6 (grading); for selective inhibitions on HDAC6: HDAC6 versus other HDACs
# T3 sequence (Q9UBN7 1-1215): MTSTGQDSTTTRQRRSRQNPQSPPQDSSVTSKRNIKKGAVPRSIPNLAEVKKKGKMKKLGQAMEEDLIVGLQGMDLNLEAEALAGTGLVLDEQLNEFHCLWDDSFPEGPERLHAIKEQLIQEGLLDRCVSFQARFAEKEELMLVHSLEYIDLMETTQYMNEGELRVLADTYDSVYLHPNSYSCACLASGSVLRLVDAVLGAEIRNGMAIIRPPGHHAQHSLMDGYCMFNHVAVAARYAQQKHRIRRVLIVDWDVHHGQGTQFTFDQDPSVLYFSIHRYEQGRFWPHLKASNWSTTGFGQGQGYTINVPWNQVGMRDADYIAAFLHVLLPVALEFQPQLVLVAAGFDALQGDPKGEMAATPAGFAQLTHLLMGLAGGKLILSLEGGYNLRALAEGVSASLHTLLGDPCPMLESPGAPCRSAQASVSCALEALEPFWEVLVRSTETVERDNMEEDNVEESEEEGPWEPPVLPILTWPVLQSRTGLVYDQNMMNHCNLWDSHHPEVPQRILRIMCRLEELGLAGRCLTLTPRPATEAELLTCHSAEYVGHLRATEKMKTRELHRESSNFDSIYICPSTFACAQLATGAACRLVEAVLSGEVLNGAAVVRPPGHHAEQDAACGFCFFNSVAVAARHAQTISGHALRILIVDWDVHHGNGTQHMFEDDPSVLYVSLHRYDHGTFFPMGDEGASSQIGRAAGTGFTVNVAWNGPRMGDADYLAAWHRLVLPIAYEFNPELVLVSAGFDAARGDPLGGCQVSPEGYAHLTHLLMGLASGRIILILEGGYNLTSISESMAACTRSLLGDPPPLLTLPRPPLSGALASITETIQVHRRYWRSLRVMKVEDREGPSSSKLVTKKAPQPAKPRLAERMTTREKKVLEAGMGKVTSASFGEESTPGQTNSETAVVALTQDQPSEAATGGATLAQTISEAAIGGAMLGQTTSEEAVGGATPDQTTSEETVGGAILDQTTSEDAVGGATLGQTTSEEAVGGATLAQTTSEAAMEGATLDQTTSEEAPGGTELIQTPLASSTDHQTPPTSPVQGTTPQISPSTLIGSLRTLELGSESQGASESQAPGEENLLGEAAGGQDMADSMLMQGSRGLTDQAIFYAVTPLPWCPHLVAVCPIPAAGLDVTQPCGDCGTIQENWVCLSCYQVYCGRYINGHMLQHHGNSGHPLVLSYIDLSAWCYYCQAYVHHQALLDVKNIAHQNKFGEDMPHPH
# [7] = test system: PC 12 cells; assay: Neurite synaptic uptake activity (FM1-43), PC 12; type: cell-based; conditions: Rattus norvegicus, NGF positive control taken as 100%, read-out: uptake of dye FM1-43 EC50
# Method: as §1, §2
# [8] = biological target: T1, zinc-mediated β-amyloid aggregation; assay: Anti-amyloid aggregation assay, thioflavin S; type: biochemical; conditions: detected by thioflavin S
# Method: as §3, §4
# [9] = test system: SH-SY5Y cells; assay: Neurite outgrowth assay, SH-SY5Y; type: cell-based; conditions: Homo sapiens
# [10] = test system: PC 12 cells; assay: Neurite outgrowth assay, PC 12; type: cell-based; conditions: Rattus norvegicus
# [11] = test system: hippocampus-lesioned mice; assay: Rotarod test in Alzheimer disease model; type: in vivo; conditions: daily i.p. 10 mg/kg for 30 days, compared to vehicle
# Source text: To test the effect of the compound in improving the learning ability of the animals in Alzheimer disease model, β-aggregates-induced hippocampal lesions were used to generate learning-impaired mice.
# [12] = MTT or SRB assay for cytotoxicity, PANC1; type: cell-based; conditions: human, PANC-1 cells, read-out: cytotoxicity IC50 (grading) PANC1
# Method: (§5) MTT or SRB Assays for Cytotoxicities of HDAC Inhibitors.
# (§6) These compounds were assayed for cytotoxicities to the following cells: A549 cells (adenocarcinomic human alveolar basal epithelial cells), HCT-116 cells (human colon carcinoma cells). PANC-1 cells (human pancreatic carcinoma, epithelial-like cell line) and HepG2 cells (human liver hepatocellular carcinoma cell line), neuronal cells PC12 (rat pheochromocytoma cell line) and SH-SY5Y (human neuroblastoma cell line). MTT (3-[4,5-dimethylthiazol-2-yl]2,5-diphenyl-tetrazolium bromide) reduction was collaborated by using trypan blue exclusion assay.
# [13] = MTT or SRB assay for cytotoxicity, A549; type: cell-based; conditions: human, A549 cells, read-out: cytotoxicity IC50 (grading) A549
# Method: as §5, §6
# [14] = MTT or SRB assay for cytotoxicity, HCT116; type: cell-based; conditions: human, HCT-116 cells, read-out: cytotoxicity IC50 (grading) HCT116
# Method: as §5, §6
# [15] = MTT or SRB assay for cytotoxicity, HepG2; type: cell-based; conditions: human, HepG2 cells, read-out: cytotoxicity IC50 (grading) HepG2
# Method: as §5, §6
# Chain of human histone deacetylases (HDAC) 1 (Q13547 whole entry): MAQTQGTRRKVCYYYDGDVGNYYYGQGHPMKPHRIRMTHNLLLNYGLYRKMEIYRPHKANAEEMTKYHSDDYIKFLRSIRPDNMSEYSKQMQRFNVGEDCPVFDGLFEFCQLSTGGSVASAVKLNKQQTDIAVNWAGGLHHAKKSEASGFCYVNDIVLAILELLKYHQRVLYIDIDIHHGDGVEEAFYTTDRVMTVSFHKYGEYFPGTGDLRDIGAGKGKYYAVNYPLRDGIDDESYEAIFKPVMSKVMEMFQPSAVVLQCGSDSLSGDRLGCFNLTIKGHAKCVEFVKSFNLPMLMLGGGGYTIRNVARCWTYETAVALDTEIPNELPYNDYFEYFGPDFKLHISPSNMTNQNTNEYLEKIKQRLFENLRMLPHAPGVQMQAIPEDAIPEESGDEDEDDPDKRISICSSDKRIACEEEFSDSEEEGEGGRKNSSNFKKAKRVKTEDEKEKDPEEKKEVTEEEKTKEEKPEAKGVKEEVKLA
Structure (SMILES),IC50 [1] [µM],EC50 [2] [µM],IC50 [3] [µM],IC50 [4] [µM],IC50 [5] [µM],IC50 [6] [µM],EC50 [7] [µM],selective inhibitions on HDAC6 [6],IC50 [8] [µM],EC50 [9] [µM],melting point,EC50 [10] [µM],learning performance in rotarod test [11],IC50 [12] [µM],IC50 [13] [µM],IC50 [14] [µM],IC50 [15] [µM]
"Cc1nc2cccc(/C=C/C(=O)NO)c2c(=O)n1-c1ccccc1 [Compound 1a, (2E)-3-(3,4-dihydro-2-methyl-4-oxo-3-phenylquinazolin-5-yl)-N-hydroxyacrylamide]",> 10,14.7 ± 1.58,30.2,1 to 10,10.1,< 0.1,8.15 ± 0.39,–,–,–,–,–,–,–,–,–,–
"Cc1nc2ccc(/C=C/C(=O)NO)cc2c(=O)n1-c1ccccc1 [Compound 1b, (2E)-3-(3,4-dihydro-2-methyl-4-oxo-3-phenylquinazolin-6-yl)-N-hydroxyacrylamide]",1 to 10,–,4.8,0.1 to 1,10.1,< 0.1,–,selective inhibitions on HDAC6,–,–,–,–,–,–,–,–,–
"Cc1nc2c(/C=C/C(=O)NO)cccc2c(=O)n1-c1ccccc1 [Compound 1d, (2E)-3-(3,4-dihydro-2-methyl-4-oxo-3-phenylquinazolin-8-yl)-N-hydroxyacrylamide]",> 10,8.03 ± 0.53,14.5,0.1 to 1,11.7,0.1 to 1,7.81 ± 0.65,–,–,–,–,–,–,–,–,–,–
"Cc1nc2cc(/C=C/C(=O)NO)ccc2c(=O)n1Cc1ccccc1 [Compound 1e, (2E)-3-(3-benzyl-3,4-dihydro-2-methyl-4-oxoquinazolin-7-yl)-N-hydroxyacrylamide]",1 to 10,8.2 ± 0.92,5.8,1 to 10,10.6,< 0.1,8.21 ± 0.37,selective inhibitions on HDAC6,18.1,8.2 ± 0.92,–,8.21 ± 0.37,–,–,–,–,–
"Cc1nc2cc(/C=C/C(=O)NO)ccc2c(=O)n1CCc1ccccc1 [Compound 1f, (2E)-3-(3,4-dihydro-2-methyl-4-oxo-3-phenethylquinazolin-7-yl)-N-hydroxyacrylamide]",1 to 10,6.77 ± 0.96,43.1,1 to 10,11.7,< 0.1,6.49 ± 0.78,selective inhibitions on HDAC6,9.5,6.77 ± 0.96,–,6.49 ± 0.78,improved learning performance,–,–,–,–

# Second part, led by results:
IC50 [1] [µM],EC50 [2] [µM],IC50 [3] [µM],IC50 [4] [µM],IC50 [5] [µM],IC50 [6] [µM],EC50 [7] [µM],selective inhibitions on HDAC6 [6],IC50 [8] [µM],EC50 [9] [µM],melting point,Structure (SMILES),EC50 [10] [µM],learning performance in rotarod test [11],IC50 [12] [µM],IC50 [13] [µM],IC50 [14] [µM],IC50 [15] [µM]
0.1 to 1,–,15.5,1 to 10,11.1,< 0.1,–,selective inhibitions on HDAC6,7.4,–,–,"Cc1nc2cc(/C=C/C(=O)NO)ccc2c(=O)n1CCc1c[nH]c2ccccc12 [Compound 1g, (2E)-3-(3-(2-(1H-indol-3-yl)ethyl)-3,4-dihydro-2-methyl-4-oxoquinazolin-7-yl)-N-hydroxyacrylamide]",–,–,–,–,–,–
0.1 to 1,4.93 ± 1.34,14.6,0.1 to 1,35,< 0.1,14.5 ± 1.47,selective inhibitions on HDAC6,5.5,4.93 ± 1.34,197 to 199 °C (dec.),"O=C(/C=C/c1ccc2c(=O)n(CCc3ccccc3)cnc2c1)NO [Compound 1h, (2E)-3-(3,4-dihydro-4-oxo-3-phenethylquinazolin-7-yl)-N-hydroxyacrylamide]",14.5 ± 1.47,–,–,–,–,–
1 to 10,0.88 ± 0.45,5.5,1 to 10,3.9,< 0.1,7.21 ± 0.32,selective inhibitions on HDAC6,6.8,0.88 ± 0.45,209 to 211 °C,"CCc1nc2cc(/C=C/C(=O)NO)ccc2c(=O)n1CCc1ccccc1 [Compound 1i, (2E)-3-(2-ethyl-3,4-dihydro-4-oxo-3-phenethylquinazolin-7-yl)-N-hydroxyacrylamide]",7.21 ± 0.32,–,≥ 10,≥ 10,≥ 10,1 to 10
1 to 10,8.81 ± 1.04,30.9,> 10,13.8,> 10,6.59 ± 1.06,–,10.7,8.81 ± 1.04,246 to 248 °C (dec.),"Cc1nc2cc(/C=C/C(=O)Nc3ccccc3N)ccc2c(=O)n1CCc1ccccc1 [Compound 6a, (2E)-N-(2-aminophenyl)-3-(3,4-dihydro-2-methyl-4-oxo-3-phenethylquinazolin-7-yl)acrylamide]",6.59 ± 1.06,–,1 to 10,≥ 10,≥ 10,0.1 to 1
